Assay results taken from US20240415800A1, “DOPA AND CAFFEIC ACID ANALOGS AS NOVEL GCPII INHIBITORS” (The Johns Hopkins University, priority 2021, published 2024).
Several values for one entry are separate records, joined by “and”; a condition that tells them apart may be missing. Equal values may be shown once. Entries after “also recorded” stand apart in the source; their conditions may differ. Read-outs that look alike come from different tables or passages of the source. Blank lines part the entries; values can stand above or below the molecule they belong to.

Key:
[1] = molecular target: T1, Recombinant human GCPII enzyme (Homo sapiens (Human), UniProt Q04609); experiment: GCPII activity assay (IC50, radiolabelled NAAG hydrolysis); format: biochemical; conditions: for GCPII inhibitory potency (in words): SAR of L-DOPA analogs
[2] = molecular target: GCPII activity in the brain (Mus musculus (Mouse), UniProt O35409); experiment: GCPII target engagement: GCPII activity in brain after dosing; format: in vivo, CD1 mouse
[3] = molecular target: T1, Recombinant human GCPII enzyme; conditions: NAAG saturation, D-DOPA 0-400 nM
[4] = In vitro metabolic stability in mouse plasma and brain homogenate; format: in vitro ADME; conditions: 10 μM, 1 h
Description: Zimmermann et al., 2018. For the brain homogenates, washed tissues were diluted 10-fold in 0.1 M potassium phosphate buffer and homogenized using a probe sonicator. Crude homogenate and plasma were aliquoted to 1 mL and spiked with a final assay concentration of 10 μM of the respective catechol followed by incubation in an orbital shaker at 37° C. for 1 h (in triplicate). An aliquot from each incubated homogenate was quenched with three volumes of acetonitrile containing the internal standard (IS; losartan: […]) at predetermined time points (0, 30, 60 min). Samples were vortex-mixed for 30 secs and centrifuged at 10,000×g for 10 min at 4° C.
Disappearance of respective catechol was monitored on a Dionex Ultimate 3000 ultra-high-performance LC system coupled with Q Exactive Focus orbitrap mass spectrometer (Thermo Fisher Scientific Inc., Waltham MA). The separation of analytes was achieved using the Agilent Eclipse Plus column (100×2.1 mm i.d.; maintained at 35° C.) packed with a 1.8 μm C18 stationary phase. The mobile phase consisted of 0.1% formic acid in water and 0.1% formic acid in acetonitrile. Pumps were operated at a flow rate of 0.4 mL/min for 9 min using gradient elution. […] Quantification of the compounds was performed in the full-scan mode (from m/z 50 to 1600) by comparing t=0 samples with t=30- and 60-min samples.

[5] = Mouse two-point oral pharmacokinetic screening; design: species or system CD-1 mice; conditions: in vivo, 50 mg/kg
Description: Male CD-1 mice between 25-30 g were obtained from Harlan and maintained on a 12 h light-dark cycle with ad libitum access to food and water. […] All of the formulations were freshly prepared prior to the dosing. […] For the collection of plasma and brain tissue, animals were euthanized with CO2, and blood samples were collected in heparinized microtubes by cardiac puncture. Brains were dissected and immediately flash frozen (-80° C.). […] Van […] et al., 2020; Wang et al., 2015. While D-/L-DOPA required derivatization with acetic anhydride, caffeic acid was analyzed using a single step protein precipitation method. […] Plasma and brain tissue samples were processed by matching the dilutions of calibration standards of the respective tissue. […] The solutions were vortexed for 15 secs and then allowed to sit at room temperature for 45 mins. These mixtures were vortexed again for 10 sec and centrifuged at 10,000 g for 10 mins to collect the supernatant. A 50 μL aliquot of the supernatant was transferred to 250 μL polypropylene autosampler vials sealed with Teflon caps. 2 μL of the sample was injected into the LC/MS/MS system for analysis. […] Then, 2 μL of the sample was analyzed using LC/MS/MS system as mentioned above. Plasma concentrations (nmol/mL) and brain tissue concentrations (nmol/g) were determined and plots of mean plasma or brain concentrations versus time were constructed.

[6] = molecular target: T1, Recombinant human GCPII enzyme; experiment: biochemical
[7] = Solubility of D-DOPA in intranasal dosing vehicle; format: physicochemical
[8] = Pharmacokinetics of D-DOPA in mouse plasma and brain (IV, PO, IN; Example 1); format: in vivo, CD1 mice; conditions: for Kp: brain/plasma, read-out: AUCBrain/Plasma (brain penetration index)
[9] = Time-dependent PK of D-DOPA with or without sodium benzoate (Example 2); format: in vivo, CD-1 mice
Description: All of the formulations were freshly prepared prior to the dosing. […] Tissue and plasma collection were carried out as described above. […] Van […] et al., 2020; Wang et al., 2015. While D-/L-DOPA required derivatization with acetic anhydride, caffeic acid was analyzed using a single step protein precipitation method. […] Plasma and brain tissue samples were processed by matching the dilutions of calibration standards of the respective tissue. […] The solutions were vortexed for 15 secs and then allowed to sit at room temperature for 45 mins. These mixtures were vortexed again for 10 sec and centrifuged at 10,000 g for 10 mins to collect the supernatant. A 50 μL aliquot of the supernatant was transferred to 250 μL polypropylene autosampler vials sealed with Teflon caps. 2 μL of the sample was injected into the LC/MS/MS system for analysis. Chromatographic analysis was performed using Thermo Scientific Vanquish UPLC system consisting of an analytical pump and an autosampler coupled with a […] spectrometer. For all analytes, the mobile phase used for the chromatographic separation composed of 0.1% formic acid in acetonitrile and 0.1% formic acid in water delivered as a gradient while pumping a flow rate of 0.400 mL/min. […] The analyte was monitored using ThermoScientific […] triple-quadrupole mass-spectrometric detector equipped with an electrospray interface, and operated in negative ion mode. The instrument was controlled by Thermo Scientific Xcalibur (version 4.2.47) software. […] Plasma concentrations (nmol/mL) and brain tissue concentrations (nmol/g) were determined and plots of mean plasma or brain concentrations versus time were constructed.

[10] = Table 1, catechol scaffolds for GCPII inhibition
[11] = Table 2-1, human recombinant GCPII
[12] = PO 50 mg/kg + sodium benzoate 400 mg/kg IP, brain

Sequence of GCPII activity in the brain (O35409 whole entry): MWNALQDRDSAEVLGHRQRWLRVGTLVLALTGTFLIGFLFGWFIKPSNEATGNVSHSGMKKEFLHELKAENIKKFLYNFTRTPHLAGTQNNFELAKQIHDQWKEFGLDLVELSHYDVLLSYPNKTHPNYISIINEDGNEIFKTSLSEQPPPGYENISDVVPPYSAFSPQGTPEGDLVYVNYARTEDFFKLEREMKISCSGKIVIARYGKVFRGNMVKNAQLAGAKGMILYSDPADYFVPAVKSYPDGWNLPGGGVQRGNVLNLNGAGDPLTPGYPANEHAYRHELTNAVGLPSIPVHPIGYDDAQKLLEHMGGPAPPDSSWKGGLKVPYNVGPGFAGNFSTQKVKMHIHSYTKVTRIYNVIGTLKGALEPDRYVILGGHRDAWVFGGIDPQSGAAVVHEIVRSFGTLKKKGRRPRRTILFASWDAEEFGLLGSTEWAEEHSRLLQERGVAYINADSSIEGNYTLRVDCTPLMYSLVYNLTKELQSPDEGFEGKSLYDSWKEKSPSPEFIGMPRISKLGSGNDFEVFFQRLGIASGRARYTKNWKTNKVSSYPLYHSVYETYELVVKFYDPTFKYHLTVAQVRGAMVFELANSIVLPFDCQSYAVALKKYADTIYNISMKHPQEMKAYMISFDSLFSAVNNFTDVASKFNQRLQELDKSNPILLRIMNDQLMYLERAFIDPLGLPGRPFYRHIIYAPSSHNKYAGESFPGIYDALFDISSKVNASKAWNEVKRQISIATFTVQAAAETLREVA
T1 sequence (Q04609 whole entry): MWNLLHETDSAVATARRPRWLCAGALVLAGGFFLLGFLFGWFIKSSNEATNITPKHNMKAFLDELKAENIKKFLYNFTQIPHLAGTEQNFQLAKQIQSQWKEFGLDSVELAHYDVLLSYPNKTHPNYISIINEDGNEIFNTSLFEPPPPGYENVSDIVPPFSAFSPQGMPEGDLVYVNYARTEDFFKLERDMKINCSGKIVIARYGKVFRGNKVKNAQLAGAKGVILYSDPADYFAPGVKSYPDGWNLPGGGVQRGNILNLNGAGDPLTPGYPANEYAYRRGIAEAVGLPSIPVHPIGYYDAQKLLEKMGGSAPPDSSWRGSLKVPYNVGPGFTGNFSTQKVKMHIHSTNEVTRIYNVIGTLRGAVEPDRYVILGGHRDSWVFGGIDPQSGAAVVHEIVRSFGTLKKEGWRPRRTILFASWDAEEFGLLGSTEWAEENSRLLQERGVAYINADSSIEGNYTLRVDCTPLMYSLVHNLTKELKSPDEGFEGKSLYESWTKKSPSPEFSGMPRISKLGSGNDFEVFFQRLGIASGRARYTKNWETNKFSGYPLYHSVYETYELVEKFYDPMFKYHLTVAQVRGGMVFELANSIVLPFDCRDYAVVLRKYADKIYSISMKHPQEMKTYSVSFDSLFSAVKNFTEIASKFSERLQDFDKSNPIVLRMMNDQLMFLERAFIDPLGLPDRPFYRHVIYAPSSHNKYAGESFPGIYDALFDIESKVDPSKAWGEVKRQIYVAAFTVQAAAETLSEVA

- IC50 ([1]; GCPII): 0.3 µM
- GCPII inhibitory potency (in words) [1]: sub-micromolar potencies
- IC50 [1, 10]: 0.1 µM
Structure (SMILES): O=C(O)/C=C/c1ccc(O)c(O)c1 [Caffeic acid]

Structure (SMILES): N[C@@H](Cc1ccc(O)cc1)C(=O)O [Compound 2-2, Tyr]
- GCPII inhibitory potency (in words) [1]: substantial loss of potency
- IC50 [1, 11]: 100 µM

- GCPII inhibitory potency (in words) [1]: substantial loss of potency
- IC50 [1, 11]: > 100 µM
Structure (SMILES): COc1ccc(C[C@H](N)C(=O)O)cc1OC [Compound 2-3]

- GCPII inhibitory potency (in words) [1]: complete loss of potency
- IC50 [1, 11]: > 100 µM
Structure (SMILES): NC(Cc1ccc(=O)n(O)c1)C(=O)O (stereo not drawn) [Compound 2-4]

- GCPII inhibitory potency (in words) [1]: loss of potency
- IC50 [1, 11]: > 100 µM
Structure (SMILES): C[C@](N)(Cc1ccc(O)c(O)c1)C(=O)O [Compound 2-5]

- GCPII inhibitory potency (in words) [1]: loss of potency
- IC50 [1, 11]: 20 µM
Structure (SMILES): CC(=O)N[C@@H](Cc1ccc(O)c(O)c1)C(=O)O [Compound 2-6]

- GCPII inhibitory potency (in words) [1]: loss of potency
- IC50 [1, 11]: > 100 µM
Structure (SMILES): NCCc1ccc(O)c(O)c1 [Compound 2-7, Dopamine]

- IC50 [1, 11]: 4 µM
- decrease in inhibitory potency ([1]; relative to L-DOPA): 6.7 fold
Structure (SMILES): O=C(O)CCc1ccc(O)c(O)c1 [Compound 2-8]

- GCPII activity in brain (cortex) ([2]; PO 30 mg/kg, 1 h post dose): significant inhibition of GCPII activity
- GCPII activity in brain ([2]; PO 50 mg/kg monotherapy, 30 min, vs untreated): significant inhibition of GCPII activity
- IC50 ([1]; GCPII): 0.2 µM
- GCPII inhibitory potency (in words) [1]: sub-micromolar potencies
- plasma and brain exposure (in words) [5]: higher plasma and brain exposure
- Ki [6]: ~0.4 µM
- solubility in vehicle [7]: poor solubility
- Kp ([8]; CD1, mouse, other: intranasal, 3.4 mg/kg, IN 3.4 mg/kg): 0.051
- Kp ([8]; CD1, mouse, po, 30 mg/kg, PO 30 mg/kg): < 0.05
- Cmax ([8]; CD1, mouse, inhaled or intranasal, IN 3.4 mg/kg, plasma, read-out: Cmax): 4.45 ± 0.971 µM
- AUC0-t ([8]; CD1, mouse, plasma, inhaled or intranasal, 3.4 mg/kg, IN 3.4 mg/kg, plasma, read-out: AUC0-t): 2.7 ± 0.508 µM·h
- AUC0-t ([8]; CD1, mouse, plasma, iv, 10 mg/kg, IV 10 mg/kg, plasma, read-out: AUC0-t): 30.5 ± 2.04 µM·h
- Tmax ([8]; CD1, mouse, plasma, iv, 10 mg/kg, IV 10 mg/kg, plasma, read-out: Tmax): ≤ 0.0833 h
- Tmax ([8]; CD1, mouse, plasma, iv, 10 mg/kg, IV 10 mg/kg, plasma, read-out: Tmax (h)): 0.0833 h
- bioavailability ([8]; CD1, mouse, plasma, PO 30 mg/kg vs IV 10 mg/kg, read-out: Bioavailability (% F)): 36%
- Cmax ([8]; CD1, mouse, PO 30 mg/kg, plasma, read-out: Cmax): 43.1 ± 2.58 µM
- AUC0-t ([8]; IN 3.4 mg/kg, brain): 0.139 ± 0.0268 nmol·h/g
- Cmax ([8]; IN 3.4 mg/kg, brain): 0.102 ± 0.00823 nmol/g
- Tmax ([8]; IN 3.4 mg/kg, plasma): 0.250 h
- AUC0-t ([8]; PO 30 mg/kg, brain): 1.09 ± 0.103 nmol·h/g
- Cmax ([8]; PO 30 mg/kg, brain): 0.472 ± 0.124 nmol/g
- AUC0-t ([8]; PO 30 mg/kg, plasma): 32.92 ± 0.731 µM·h
- Cmax ([8]; mouse, IV 10 mg/kg, plasma, CD1 mice, read-out: Cmax): 61.1 ± 5.09 µM
- Kp ([9]; CD-1, mouse, brain/plasma, PO 50 mg/kg + sodium benzoate 400 mg/kg IP, read-out: brain penetration index): 0.03
- AUC ([9]; CD-1, mouse, plasma, iv, 10 mg/kg, IV 10 mg/kg, plasma, read-out: AUCIV): 30.5 µM·h
- AUC ([9]; CD-1, mouse, plasma, oral, PO 50 mg/kg + sodium benzoate 400 mg/kg IP, plasma, read-out: AUCPlasma): 185 µM·h
- AUC ([9]; CD-1, mouse, plasma, po, 50 mg/kg, PO 50 mg/kg + sodium benzoate 400 mg/kg IP, plasma, read-out: AUCPlasma): 185 µM·h
- AUC ([9]; CD-1, mouse, plasma, po, 50 mg/kg, PO 50 mg/kg monotherapy, plasma, read-out: AUCPO-plasma): 72.7 µM·h
- Cmax ([9]; CD-1, mouse, PO 50 mg/kg monotherapy, brain, read-out: Cmax): 1.74 µM
- time brain levels stayed >IC50 value of 0.2 μM ([9]; PO 50 mg/kg + sodium benzoate 400 mg/kg IP): over 3 h
- AUCBrain [9, 12]: 5.48 nmol·h/g
- Cmax [9, 12]: 3.2 nmol/g and 3.20 nmol/g
- Cmax ([9]; PO 50 mg/kg + sodium benzoate 400 mg/kg IP, plasma, read-out: Cmax): 151 µM
- time brain concentrations were >IC50 ([9]; PO 50 mg/kg monotherapy): up to 1 h
- AUCPO-Brain ([9]; PO 50 mg/kg monotherapy, brain): 2.42 nmol·h/g
- Cmax ([9]; PO 50 mg/kg monotherapy, brain): 1.74 nmol/g
- Tmax ([9]; PO 50 mg/kg monotherapy, brain): 30 min
- oral bioavailability (AUCPO/IV) ([9]; PO 50 mg/kg vs IV 10 mg/kg): 47.7%
- enhancement in both plasma and brain exposures ([9]; combination with sodium benzoate vs D-DOPA alone): > 200%
Structure (SMILES): N[C@H](Cc1ccc(O)c(O)c1)C(=O)O [D-DOPA, D-3,4-dihydroxyphenylalanine]
- GCPII activity in brain ([2]; PO 50 mg/kg + sodium benzoate 400 mg/kg IP, 30 min): significantly outperformed D-DOPA alone; also recorded: significant inhibition of GCPII activity; also recorded: significantly outperformed D-DOPA mono-therapy
- GCPII activity in brain ([2]; intranasal dosing): insufficient exposures to the brain to affect GCP II activity
- mode of inhibition [3]: noncompetitive, allosteric inhibitor of GCPII
- metabolic stability (in words) [4]: good metabolic stability; also recorded: superior in vitro stability

- IC50 [1, 10]: 0.4 µM
- IC50 [1, 11]: 0.6 µM
Structure (SMILES): N[C@@H](Cc1ccc(O)c(O)c1)C(=O)O [L-DOPA]
- GCPII inhibitory potency (in words) [1]: sub-micromolar potencies; also recorded: submicromolar inhibitor of GCPII
